Here are results for six compounds from ChEMBL document CHEMBL1759834, “Synthesis, stereochemistry, antimicrobial evaluation and QSAR studies of 2,6-diaryltetrahydropyran-4-one thiosemicarbazones” (2011).

One assay deals with Staphylococcus aureus. Put plainly: Antibacterial activity against Staphylococcus aureus ATCC 25825 after 24 hrs by twofold serial dilution method. The format is functional. The note with it: for MIC: Staphylococcus aureus, ATCC 25825, 24 h.
The next assay deals with Salmonella typhi. Kind of assay: Antibacterial activity against Salmonella typhi ATCC 24915 after 24 hrs by twofold serial dilution method. The conditions noted are these: for MIC: Salmonella enterica, ATCC 24915, 24 h. Type of assay: functional, Salmonella enterica subsp. enterica serovar Typhi.
The test system of another assay is Cryptococcus neoformans. Kind of assay: Antifungal activity against Cryptococcus neoformans after 72 to 96 hrs by twofold serial dilution method. Type of assay: functional. The conditions noted are these: for MIC: Cryptococcus neoformans.
The test system of another assay is Escherichia coli. Put plainly: Antibacterial activity against Escherichia coli ATCC 25835 after 24 hrs by twofold serial dilution method. The format is functional. The note with it: for MIC: Escherichia coli, ATCC 25835, 24 h.
The next assay concerns Candida albicans. Kind of assay: Antifungal activity against Candida albicans after 24 hrs by twofold serial dilution method. Type of assay: functional. The conditions noted are these: for MIC: Candida albicans, 24 h.
A further assay relates to Aspergillus niger. Put plainly: Antifungal activity against Aspergillus niger after 72 to 96 hrs by twofold serial dilution method. The format is functional. The note with it: for MIC: Aspergillus niger.
In a further assay the test system is Pseudomonas aeruginosa. Put plainly: Antibacterial activity against Pseudomonas aeruginosa ATCC 10145 after 24 hrs by twofold serial dilution method. The format is functional. The conditions noted are these: for MIC: Pseudomonas aeruginosa, ATCC 10145, 24 h.
A further assay deals with Klebsiella pneumoniae. Kind of assay: Antibacterial activity against Klebsiella pneumoniae ATCC 15490 after 24 hrs by twofold serial dilution method. The format is functional. The conditions noted are these: for MIC: Klebsiella pneumoniae, ATCC 15490, 24 h.
A further assay relates to Bacillus subtilis. Put plainly: Antibacterial activity against Bacillus subtilis ATCC 451 after 24 hrs by twofold serial dilution method. The format is functional. The conditions noted are these: for MIC: Bacillus subtilis, ATCC 451, 24 h.

As a reminder, the MIC is the least concentration at which growth counts as inhibited. Read a low MIC as greater potency.

In brackets after ≈: the same amount, converted by molar mass.

In the case of `C[C@@H]1/C(=N\NC(=S)Nc2ccccc2)[C@@H](C)[C@H](c2ccc(Cl)cc2)O[C@@H]1c1ccc(Cl)cc1`, the “-logMIC” value with Staphylococcus aureus is given as 4.602; in the assay with Cryptococcus neoformans it was 5.204; with Escherichia coli, 4; in the assay on Candida albicans, 4.903; with Aspergillus niger, 4.301; in the assay on Pseudomonas aeruginosa, 5.204. For the same compound, the “-logMIC” value with Klebsiella pneumoniae was 4.903; in the assay on Bacillus subtilis it was 4.602. Further, the MIC in the assay on Staphylococcus aureus was found to be 25 µg/mL (≈ 50.2 µM); against Salmonella typhi, 25 µg/mL (≈ 50.2 µM); in the assay on Cryptococcus neoformans it was 6.25 µg/mL (≈ 12.5 µM); against Escherichia coli it was 100 µg/mL (≈ 201 µM); against Candida albicans, 12.5 µg/mL (≈ 25.1 µM); in the assay on Aspergillus niger it was 50 µg/mL (≈ 100 µM). The minimal inhibitory concentration (MIC) with Pseudomonas aeruginosa came out at 6.25 µg/mL (≈ 12.5 µM); against Klebsiella pneumoniae, 12.5 µg/mL (≈ 25.1 µM); against Bacillus subtilis, 25 µg/mL (≈ 50.2 µM).

As to `C[C@@H]1/C(=N\NC(=S)Nc2ccccc2)[C@@H](C)[C@H](c2ccc(Br)cc2)O[C@@H]1c1ccc(Br)cc1`, the “-logMIC” value is given as 4.602 with Staphylococcus aureus; 4.903 in the assay with Cryptococcus neoformans; 4 with Escherichia coli; 5.204 in the assay with Candida albicans; 4.602 with Aspergillus niger; 5.204 with Pseudomonas aeruginosa. The “-logMIC” value in the assay with Klebsiella pneumoniae and with Bacillus subtilis was 4.602 throughout. Besides, the MIC with Staphylococcus aureus stood at 25 µg/mL (≈ 42.6 µM); in the assay with Salmonella typhi, 12.5 µg/mL (≈ 21.3 µM); in the assay on Cryptococcus neoformans, 12.5 µg/mL (≈ 21.3 µM); against Escherichia coli, 100 µg/mL (≈ 170 µM); in the assay on Candida albicans, 6.25 µg/mL (≈ 10.6 µM); in the assay on Aspergillus niger, 25 µg/mL (≈ 42.6 µM). Moreover, the MIC worked out at 6.25 µg/mL (≈ 10.6 µM) against Pseudomonas aeruginosa, 25 µg/mL (≈ 42.6 µM) in the assay on Klebsiella pneumoniae and 25 µg/mL (≈ 42.6 µM) in the assay with Bacillus subtilis.

As for `COc1ccc([C@H]2O[C@@H](c3ccc(OC)cc3)[C@H](C)/C(=N/NC(=S)Nc3ccccc3)[C@H]2C)cc1`, the “-logMIC” value worked out at 4.903 with Staphylococcus aureus; 4 in the assay on Salmonella typhi; 3.698 in the assay with Cryptococcus neoformans; 4.602 with Escherichia coli; 5.204 with Candida albicans; 4.602 with Aspergillus niger. Also, the “-logMIC” value in the assay with Pseudomonas aeruginosa is listed as 4.602; with Klebsiella pneumoniae it was 4.602; in the assay on Bacillus subtilis, 4.903. Further, the MIC was found to be 12.5 µg/mL (≈ 25.5 µM) against Staphylococcus aureus; 100 µg/mL (≈ 204 µM) against Salmonella typhi; 200 µg/mL (≈ 408 µM) against Cryptococcus neoformans; 25 µg/mL (≈ 51.1 µM) in the assay on Escherichia coli; 6.25 µg/mL (≈ 12.8 µM) against Candida albicans; 25 µg/mL (≈ 51.1 µM) against Aspergillus niger. Further, the MIC against Pseudomonas aeruginosa was 25 µg/mL (≈ 51.1 µM); against Klebsiella pneumoniae, 25 µg/mL (≈ 51.1 µM); in the assay on Bacillus subtilis it was 12.5 µg/mL (≈ 25.5 µM).

Consider `C[C@@H]1/C(=N\NC(=S)Nc2ccccc2)[C@@H](C)[C@H](c2ccccc2Cl)O[C@@H]1c1ccccc1Cl`, for which the “-logMIC” value with Staphylococcus aureus was 4.301; in the assay on Cryptococcus neoformans it was 4.602; in the assay on Escherichia coli, 4.602; in the assay on Candida albicans, 4.301; in the assay on Aspergillus niger, 3.698; in the assay on Pseudomonas aeruginosa, 4.301. Also, the “-logMIC” value was found to be 4.903 with Klebsiella pneumoniae and 4.301 with Bacillus subtilis. Besides, the MIC came to 50 µg/mL (≈ 100 µM) against Staphylococcus aureus; 25 µg/mL (≈ 50.2 µM) in the assay with Salmonella typhi; 25 µg/mL (≈ 50.2 µM) against Cryptococcus neoformans; 25 µg/mL (≈ 50.2 µM) in the assay on Escherichia coli; 50 µg/mL (≈ 100 µM) against Candida albicans; 200 µg/mL (≈ 401 µM) against Aspergillus niger. Further, the MIC is 50 µg/mL (≈ 100 µM) in the assay on Pseudomonas aeruginosa, 12.5 µg/mL (≈ 25.1 µM) in the assay with Klebsiella pneumoniae and 50 µg/mL (≈ 100 µM) with Bacillus subtilis.

In the case of `C[C@@H]1/C(=N\NC(=S)Nc2ccccc2)[C@@H](C)[C@H](c2cccc(Cl)c2)O[C@@H]1c1cccc(Cl)c1`, the “-logMIC” value in the assay with Staphylococcus aureus was 4.301; with Cryptococcus neoformans, 4.602; with Escherichia coli it was 4; with Candida albicans, 4.602; in the assay on Aspergillus niger, 4; in the assay with Pseudomonas aeruginosa, 4.602. Also, the “-logMIC” value with Klebsiella pneumoniae is 4.903; in the assay on Bacillus subtilis, 4.602. Further, the MIC against Staphylococcus aureus was 50 µg/mL (≈ 100 µM); against Salmonella typhi it was 12.5 µg/mL (≈ 25.1 µM); against Cryptococcus neoformans, 25 µg/mL (≈ 50.2 µM); in the assay with Escherichia coli, 100 µg/mL (≈ 201 µM); with Candida albicans it was 25 µg/mL (≈ 50.2 µM); in the assay with Aspergillus niger, 100 µg/mL (≈ 201 µM). Also, the MIC in the assay with Pseudomonas aeruginosa is 25 µg/mL (≈ 50.2 µM); against Klebsiella pneumoniae, 12.5 µg/mL (≈ 25.1 µM); with Bacillus subtilis it was 25 µg/mL (≈ 50.2 µM).

With `COc1cccc([C@H]2O[C@@H](c3cccc(OC)c3)[C@H](C)/C(=N/NC(=S)Nc3ccccc3)[C@H]2C)c1`, the “-logMIC” value in the assay on Staphylococcus aureus turned out to be 4.903; in the assay with Cryptococcus neoformans it was 4; in the assay on Escherichia coli it was 4.301; with Candida albicans, 4.602; in the assay with Aspergillus niger, 4; in the assay with Pseudomonas aeruginosa, 3.698. The “-logMIC” value is recorded as 4 in the assay with Klebsiella pneumoniae and 4.903 in the assay on Bacillus subtilis. For the same compound, the minimal inhibitory concentration (MIC) amounted to 12.5 µg/mL (≈ 25.5 µM) against Staphylococcus aureus; 50 µg/mL (≈ 102 µM) against Salmonella typhi; 100 µg/mL (≈ 204 µM) against Cryptococcus neoformans; 50 µg/mL (≈ 102 µM) in the assay on Escherichia coli; 25 µg/mL (≈ 51.1 µM) with Candida albicans; 100 µg/mL (≈ 204 µM) with Aspergillus niger. Moreover, the MIC is 200 µg/mL (≈ 408 µM) against Pseudomonas aeruginosa, 100 µg/mL (≈ 204 µM) in the assay with Klebsiella pneumoniae and 12.5 µg/mL (≈ 25.5 µM) against Bacillus subtilis.
